Columns and labels:
[1] = molecular target: T1, Cyclin-dependent kinase-like 2 (Homo sapiens) (UniProt Q92772); experiment: Selectivity interaction (KinomeScan (DiscoverX)) EUB0000655a CDKL2; settings: at 10 µM
T1 sequence (whole entry): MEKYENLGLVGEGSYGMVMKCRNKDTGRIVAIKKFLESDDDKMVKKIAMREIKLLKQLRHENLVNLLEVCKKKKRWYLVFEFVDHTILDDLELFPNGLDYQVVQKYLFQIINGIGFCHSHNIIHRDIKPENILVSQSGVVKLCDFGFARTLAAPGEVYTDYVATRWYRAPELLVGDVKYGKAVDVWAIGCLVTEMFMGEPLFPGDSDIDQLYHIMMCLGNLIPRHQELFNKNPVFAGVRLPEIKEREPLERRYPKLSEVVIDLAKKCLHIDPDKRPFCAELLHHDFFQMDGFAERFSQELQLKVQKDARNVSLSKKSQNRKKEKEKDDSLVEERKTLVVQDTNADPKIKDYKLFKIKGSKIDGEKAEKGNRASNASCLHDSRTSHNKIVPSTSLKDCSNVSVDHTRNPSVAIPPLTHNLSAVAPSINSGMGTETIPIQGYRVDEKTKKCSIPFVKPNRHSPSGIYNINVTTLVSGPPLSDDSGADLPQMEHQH

[2] = molecular target: T2, Rhodopsin kinase GRK7 (Homo sapiens) (UniProt Q8WTQ7); experiment: Selectivity interaction (KinomeScan (DiscoverX)) EUB0000618a GRK7; settings: at 10 µM
T2 sequence (whole entry): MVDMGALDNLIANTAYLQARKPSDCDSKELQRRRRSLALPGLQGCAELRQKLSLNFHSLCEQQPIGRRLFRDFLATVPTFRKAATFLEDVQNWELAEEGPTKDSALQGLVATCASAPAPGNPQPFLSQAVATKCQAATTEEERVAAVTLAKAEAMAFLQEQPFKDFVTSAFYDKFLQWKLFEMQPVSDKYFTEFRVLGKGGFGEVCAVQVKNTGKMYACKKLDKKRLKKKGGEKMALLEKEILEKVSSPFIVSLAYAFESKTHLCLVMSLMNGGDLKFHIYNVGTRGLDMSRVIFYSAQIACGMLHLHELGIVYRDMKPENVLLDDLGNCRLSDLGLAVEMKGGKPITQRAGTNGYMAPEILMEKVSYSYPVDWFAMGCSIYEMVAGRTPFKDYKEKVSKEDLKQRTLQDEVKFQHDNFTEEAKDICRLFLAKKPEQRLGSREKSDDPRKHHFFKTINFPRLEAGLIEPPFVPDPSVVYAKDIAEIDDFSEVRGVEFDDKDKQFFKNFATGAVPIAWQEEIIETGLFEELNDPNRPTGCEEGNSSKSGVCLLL

[3] = molecular target: T3, Serine/threonine-protein kinase LATS2 (Homo sapiens) (UniProt Q9NRM7); experiment: Selectivity interaction (KinomeScan (DiscoverX)) EUB0000607a LATS2; settings: at 10 µM
T3 sequence (whole entry): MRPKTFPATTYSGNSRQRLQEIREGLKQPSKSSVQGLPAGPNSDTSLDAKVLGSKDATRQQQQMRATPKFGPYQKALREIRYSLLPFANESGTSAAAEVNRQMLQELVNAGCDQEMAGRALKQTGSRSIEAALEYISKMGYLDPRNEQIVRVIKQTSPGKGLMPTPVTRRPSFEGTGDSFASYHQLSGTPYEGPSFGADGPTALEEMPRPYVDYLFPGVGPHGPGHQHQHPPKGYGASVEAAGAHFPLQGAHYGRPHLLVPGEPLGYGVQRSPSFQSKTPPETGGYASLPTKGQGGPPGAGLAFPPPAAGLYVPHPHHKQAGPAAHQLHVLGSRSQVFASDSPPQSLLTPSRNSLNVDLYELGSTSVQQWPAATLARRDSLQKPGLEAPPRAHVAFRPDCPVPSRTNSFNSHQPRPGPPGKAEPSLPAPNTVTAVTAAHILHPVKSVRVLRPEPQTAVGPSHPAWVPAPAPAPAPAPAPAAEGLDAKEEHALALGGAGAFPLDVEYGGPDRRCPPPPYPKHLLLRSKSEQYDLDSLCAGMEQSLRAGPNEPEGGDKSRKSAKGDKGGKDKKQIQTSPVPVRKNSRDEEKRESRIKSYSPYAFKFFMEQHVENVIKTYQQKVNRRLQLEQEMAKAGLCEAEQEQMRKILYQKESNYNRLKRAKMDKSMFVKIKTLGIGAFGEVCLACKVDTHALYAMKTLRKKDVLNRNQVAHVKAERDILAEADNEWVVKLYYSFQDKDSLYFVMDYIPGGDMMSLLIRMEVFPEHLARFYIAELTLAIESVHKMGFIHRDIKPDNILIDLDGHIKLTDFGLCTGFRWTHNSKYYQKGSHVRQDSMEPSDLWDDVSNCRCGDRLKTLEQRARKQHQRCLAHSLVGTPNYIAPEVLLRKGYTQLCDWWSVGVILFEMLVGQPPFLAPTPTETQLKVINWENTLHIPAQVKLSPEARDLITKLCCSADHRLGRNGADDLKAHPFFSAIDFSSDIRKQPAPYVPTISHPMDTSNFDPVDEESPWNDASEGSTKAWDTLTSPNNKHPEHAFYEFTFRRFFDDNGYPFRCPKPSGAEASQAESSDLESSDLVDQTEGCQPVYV

[4] = molecular target: Mast/stem cell growth factor receptor Kit (Homo sapiens, UniProt P10721); experiment: (§1) Selectivity interaction (KinomeScan (DiscoverX)) EUB0000607a KIT; settings: at 10 µM
Chain of Mast/stem cell growth factor receptor Kit (P10721 whole entry): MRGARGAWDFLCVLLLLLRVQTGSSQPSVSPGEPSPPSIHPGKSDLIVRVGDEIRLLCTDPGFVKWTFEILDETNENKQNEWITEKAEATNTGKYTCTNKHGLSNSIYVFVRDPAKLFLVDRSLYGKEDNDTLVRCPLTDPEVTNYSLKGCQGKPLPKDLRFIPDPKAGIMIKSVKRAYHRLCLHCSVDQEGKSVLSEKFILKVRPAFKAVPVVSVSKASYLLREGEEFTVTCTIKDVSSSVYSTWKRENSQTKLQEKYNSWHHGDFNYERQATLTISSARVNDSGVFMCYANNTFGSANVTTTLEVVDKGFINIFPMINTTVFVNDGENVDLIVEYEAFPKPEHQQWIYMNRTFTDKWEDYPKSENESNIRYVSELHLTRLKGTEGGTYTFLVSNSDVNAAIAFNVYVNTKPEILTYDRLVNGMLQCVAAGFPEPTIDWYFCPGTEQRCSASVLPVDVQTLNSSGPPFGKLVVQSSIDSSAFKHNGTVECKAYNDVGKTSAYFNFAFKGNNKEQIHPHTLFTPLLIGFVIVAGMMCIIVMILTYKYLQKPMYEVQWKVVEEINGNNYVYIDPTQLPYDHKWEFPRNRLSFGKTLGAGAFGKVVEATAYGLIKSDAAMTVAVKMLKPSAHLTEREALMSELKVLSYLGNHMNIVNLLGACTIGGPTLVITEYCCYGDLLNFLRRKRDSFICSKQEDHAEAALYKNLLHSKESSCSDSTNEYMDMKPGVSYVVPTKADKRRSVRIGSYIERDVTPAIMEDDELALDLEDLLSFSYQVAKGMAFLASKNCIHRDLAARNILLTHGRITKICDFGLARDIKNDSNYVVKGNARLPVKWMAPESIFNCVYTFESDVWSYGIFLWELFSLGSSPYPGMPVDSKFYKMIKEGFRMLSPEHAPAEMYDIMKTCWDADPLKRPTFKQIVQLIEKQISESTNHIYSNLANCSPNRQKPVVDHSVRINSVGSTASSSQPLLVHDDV

[5] = system: Mast/stem cell growth factor receptor Kit (Homo sapiens), P10721 [A829P]; experiment: as §1; settings: at 10 µM
Chain of Mast/stem cell growth factor receptor Kit (Homo sapiens), P10721 [A829P] (P10721 whole entry A829P): as the sequence (P10721 whole entry) above, with A829P counted along it

[6] = system: Mast/stem cell growth factor receptor Kit (Homo sapiens), P10721 [D816V]; experiment: as §1; settings: at 10 µM
Chain of Mast/stem cell growth factor receptor Kit (Homo sapiens), P10721 [D816V] (P10721 whole entry D816V): as the sequence (P10721 whole entry) above, with D816V counted along it

[7] = system: Mast/stem cell growth factor receptor Kit (Homo sapiens), P10721 [D816H]; experiment: as §1; settings: at 10 µM
Chain of Mast/stem cell growth factor receptor Kit (Homo sapiens), P10721 [D816H] (P10721 whole entry D816H): as the sequence (P10721 whole entry) above, with D816H counted along it

[8] = system: Mast/stem cell growth factor receptor Kit (Homo sapiens), P10721 [L576P]; experiment: as §1; settings: at 10 µM
Chain of Mast/stem cell growth factor receptor Kit (Homo sapiens), P10721 [L576P] (P10721 whole entry L576P): as the sequence (P10721 whole entry) above, with L576P counted along it

[9] = system: Mast/stem cell growth factor receptor Kit (Homo sapiens), P10721 [V559D,T670I]; experiment: as §1; settings: at 10 µM
Chain of Mast/stem cell growth factor receptor Kit (Homo sapiens), P10721 [V559D,T670I] (P10721 whole entry V559D/T670I): as the sequence (P10721 whole entry) above, with V559D, T670I counted along it

[10] = system: Mast/stem cell growth factor receptor Kit (Homo sapiens), P10721 [V559D,V654A]; experiment: as §1; settings: at 10 µM
Chain of Mast/stem cell growth factor receptor Kit (Homo sapiens), P10721 [V559D,V654A] (P10721 whole entry V559D/V654A): as the sequence (P10721 whole entry) above, with V559D, V654A counted along it

[11] = system: Mast/stem cell growth factor receptor Kit (Homo sapiens), P10721 [V559D]; experiment: as §1; settings: at 10 µM
Chain of Mast/stem cell growth factor receptor Kit (Homo sapiens), P10721 [V559D] (P10721 whole entry V559D, canonical isoform): as the sequence (P10721 whole entry) above, with V559D counted along it

[12] = molecular target: Casein kinase I isoform alpha (Homo sapiens, UniProt P48729); experiment: Selectivity interaction (KinomeScan (DiscoverX)) EUB0000229b CSNK1A1; settings: at 10 µM
Chain of Casein kinase I isoform alpha (P48729 2-337 limits assumed): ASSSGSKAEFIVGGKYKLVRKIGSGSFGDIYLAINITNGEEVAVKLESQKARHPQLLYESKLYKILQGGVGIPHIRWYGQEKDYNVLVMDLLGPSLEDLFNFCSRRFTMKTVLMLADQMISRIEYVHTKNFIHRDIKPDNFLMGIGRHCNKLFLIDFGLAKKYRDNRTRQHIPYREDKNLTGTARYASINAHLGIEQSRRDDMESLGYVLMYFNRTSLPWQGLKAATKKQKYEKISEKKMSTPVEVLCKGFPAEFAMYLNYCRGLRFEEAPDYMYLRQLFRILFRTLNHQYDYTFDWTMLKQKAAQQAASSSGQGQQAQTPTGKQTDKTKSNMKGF

[13] = molecular target: MAP kinase-interacting serine/threonine-protein kinase 2 (Homo sapiens, UniProt Q9HBH9); experiment: Selectivity interaction (KinomeScan (DiscoverX)) EUB0000695a MKNK2; settings: at 100 nM
Chain of MAP kinase-interacting serine/threonine-protein kinase 2 (Q9HBH9 whole entry, looked up): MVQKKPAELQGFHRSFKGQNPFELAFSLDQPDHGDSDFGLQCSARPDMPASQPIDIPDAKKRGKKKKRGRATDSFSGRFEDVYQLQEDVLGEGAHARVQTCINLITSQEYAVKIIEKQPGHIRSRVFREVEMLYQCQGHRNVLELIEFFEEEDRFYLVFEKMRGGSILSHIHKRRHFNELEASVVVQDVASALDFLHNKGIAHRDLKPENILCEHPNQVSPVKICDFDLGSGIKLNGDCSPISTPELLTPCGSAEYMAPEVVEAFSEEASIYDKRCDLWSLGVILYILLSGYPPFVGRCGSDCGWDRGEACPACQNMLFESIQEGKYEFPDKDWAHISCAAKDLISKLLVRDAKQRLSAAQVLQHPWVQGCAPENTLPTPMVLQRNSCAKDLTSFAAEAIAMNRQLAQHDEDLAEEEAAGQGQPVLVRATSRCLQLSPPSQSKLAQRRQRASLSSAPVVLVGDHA

CN(C)CCOc1ccc(-c2nc(-c3ccncc3)c(-c3ccc4c(c3)CC/C4=N\O)[nH]2)cc1
% of control [1]: 100%

O[C@H]1CC[C@H](Nc2ncc3nc(Nc4c(F)cc(F)cc4F)n([C@H]4CCOC4)c3n2)CC1
% of control [2]: 86%

CNC(=O)Nc1ccc(-c2nc(N3CC4CCC(C3)O4)c3cnn(C4CCC5(CC4)OCCO5)c3n2)cc1
% of control [3]: 76%
% of control [4]: 91%
% of control [5]: 89%
% of control [6]: 82%
% of control [7]: 86%
% of control [8]: 85%
% of control [9]: 100%
% of control [10]: 100%
% of control [11]: 85%

COc1cc(N(C)c2ccnc3ccc(C(F)(F)F)cc23)cc(OC)c1OC
% binding [12]: 90%

Cc1cc(F)c(C(=O)Nc2cccc(-c3nncn3C(C)C)n2)cc1-n1cnc(C2CC2)c1
% of control [13]: 75%
